We go through 47 compounds from ChEMBL document CHEMBL1149138 (J Med Chem, 2004).

One test has as its target Neuraminidase (Influenza B virus (strain B/Lee/1940), UniProt P03474). Also on record: species or system Influenza B virus (strain: B/Lee/40).
Test [1] deals with Neuraminidase (Influenza A virus (A/Puerto Rico/8/1934(H1N1)), UniProt P03468).
The test system of test [2] is Mus musculus. Kind of test: Maximum weight lose in influenza A infected mice when treated by the compound at a dose of 0 mg/kg/day b.i.d. The class given is functional.
Test [3] concerns Mus musculus. Briefly: Maximum weight lose in influenza A infected mice when treated by the compound at a dose of 10 mg/kg/day b.i.d. The class given is functional.
In test [4] the test system is Mus musculus. Briefly: Maximum weight lose in influenza A infected mice when treated by the compound at a dose of 1 mg/kg/day b.i.d. The class given is functional.
Test [5] has as its system Mus musculus. Briefly: Maximum weight lose in influenza A infected mice when treated by the compound at a dose of 0.1 mg/kg/day b.i.d. The class given is functional.

Where only a bound is given, the exact number is not on record here.

Chain of Neuraminidase (P03474 whole entry): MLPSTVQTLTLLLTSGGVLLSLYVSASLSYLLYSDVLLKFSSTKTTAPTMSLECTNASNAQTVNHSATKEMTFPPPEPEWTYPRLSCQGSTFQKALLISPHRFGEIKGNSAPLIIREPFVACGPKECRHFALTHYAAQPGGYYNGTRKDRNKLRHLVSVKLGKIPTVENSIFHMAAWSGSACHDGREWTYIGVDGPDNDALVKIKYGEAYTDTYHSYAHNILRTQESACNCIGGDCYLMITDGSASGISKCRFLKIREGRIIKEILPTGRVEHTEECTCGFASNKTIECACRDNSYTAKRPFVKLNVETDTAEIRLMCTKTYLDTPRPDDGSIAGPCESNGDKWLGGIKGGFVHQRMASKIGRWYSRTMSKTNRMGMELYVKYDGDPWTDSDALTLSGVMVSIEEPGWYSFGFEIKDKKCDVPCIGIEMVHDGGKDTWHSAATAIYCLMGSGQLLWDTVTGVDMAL
Chain of Neuraminidase (Influenza A virus (A/Puerto Rico/8/1934(H1N1)), UniProt P03468) (P03468 whole entry): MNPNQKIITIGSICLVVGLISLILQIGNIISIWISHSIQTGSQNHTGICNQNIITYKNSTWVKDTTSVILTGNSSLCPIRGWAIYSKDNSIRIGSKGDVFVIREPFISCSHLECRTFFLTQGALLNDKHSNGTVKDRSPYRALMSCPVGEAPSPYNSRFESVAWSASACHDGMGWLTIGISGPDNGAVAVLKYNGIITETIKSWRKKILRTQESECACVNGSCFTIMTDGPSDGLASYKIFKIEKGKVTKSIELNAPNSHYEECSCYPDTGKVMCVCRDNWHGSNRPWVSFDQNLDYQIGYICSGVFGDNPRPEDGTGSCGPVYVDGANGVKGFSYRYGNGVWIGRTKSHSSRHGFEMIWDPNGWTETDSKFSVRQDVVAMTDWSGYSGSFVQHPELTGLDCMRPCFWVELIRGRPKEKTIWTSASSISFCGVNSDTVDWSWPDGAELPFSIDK

In the case of `CC(=O)NC(C(=O)N1CC(C)CC(C)C1)[C@H]1CC(C(=O)O)C[C@@H]1N=C(N)N` (stereo partly specified), at Neuraminidase, the IC50 (commonly the concentration at which inhibition is half-maximal) was over 100 µM.
With `C=CCNC(=O)C(NC(C)=O)[C@H]1CC(C(=O)O)C[C@@H]1N=C(N)N` (stereo partly specified), the IC50 at Neuraminidase was 4.3 µM.
Take `CCCN(CCC)C(=O)C(NC(C)=O)[C@H]1CC(C(=O)O)C[C@@H]1N=C(N)N` (stereo partly specified): at Neuraminidase, the concentration for half-maximal inhibition (IC50) came out at 9.2 µM.
With `CCCN(CC1CC1)C(=O)C(NC(C)=O)[C@H]1CC(C(=O)O)C[C@@H]1N=C(N)N` (stereo partly specified), the concentration for half-maximal inhibition (IC50) against Neuraminidase came to 24 µM.
In the case of `CCCCNC(=O)C(NC(C)=O)[C@H]1CC(C(=O)O)C[C@@H]1N=C(N)N` (stereo partly specified), on Neuraminidase, the IC50 turned out to be 46.8 µM.
In turn, `CCCN(CCC)C(=O)C(NC(C)=O)[C@H]1C[C@@](O)(C(=O)O)C[C@@H]1N=C(N)N` (stereo partly specified) gave an IC50 in test [1] of 0.47 µM.
As to `CC(=O)NC(C(=O)N1CCOCC1)[C@H]1CC(C(=O)O)C[C@@H]1N=C(N)N` (stereo partly specified), the half-inhibitory concentration (IC50) at Neuraminidase was determined as 7.8 µM.
On Neuraminidase, `CC(=O)NC(C(=O)N1CCCCCC1)[C@H]1CC(C(=O)O)C[C@@H]1N=C(N)N` (stereo partly specified) had an IC50 of 25.3 µM.
On Neuraminidase, `CCC1CCCCN1C(=O)C(NC(C)=O)[C@H]1CC(C(=O)O)C[C@@H]1N=C(N)N` (stereo partly specified) showed an IC50 of 3.1 µM.
With `CC(=O)NC(C(=O)N1CCC(C)CC1)[C@H]1CC(C(=O)O)C[C@@H]1N=C(N)N` (stereo partly specified), the 50% inhibitory concentration (IC50) at Neuraminidase stood at 42.5 µM.
Same read-out and setting: the figure for `CCN(CCO)C(=O)C(NC(C)=O)[C@H]1CC(C(=O)O)C[C@@H]1N=C(N)N` (stereo partly specified) is over 30 µM.
The compound `CC(=O)NC(C(=O)N1CCC1)[C@H]1CC(C(=O)O)C[C@@H]1N=C(N)N` (stereo partly specified) had an IC50 against Neuraminidase of 8.4 µM.
The same measure, in the same setting: the figure for `CC(=O)NC(C(=O)N1CCCCC1C)[C@H]1CC(C(=O)O)C[C@@H]1N=C(N)N` (stereo partly specified) is 10.5 µM; for `CCCCCCN(C)C(=O)C(NC(C)=O)[C@H]1CC(C(=O)O)C[C@@H]1N=C(N)N` (stereo partly specified) it is over 30 µM.
Consider `CCN(CC)C(=O)C(NC(C)=O)[C@H]1C[C@@H](C(=O)O)C[C@@H]1N=C(N)N` (stereo partly specified), for which the IC50 in test [1] was 0.007 µM; against Neuraminidase, 1.5 µM.
In turn, `CCCC1CCCCN1C(=O)C(NC(C)=O)[C@H]1CC(C(=O)O)C[C@@H]1N=C(N)N` (stereo partly specified) came in with a 50% inhibitory concentration (IC50) against Neuraminidase of 14.5 µM.
The same measure, in the same setting: the figure for `CCN(CC)C(=O)C(NC(C)=O)[C@H]1CC(C(=O)O)C[C@@H]1N=C(N)N` (stereo partly specified) is 3 µM; for `CCCCN(C)C(=O)C(NC(C)=O)[C@H]1CC(C(=O)O)C[C@@H]1N=C(N)N` (stereo partly specified) it is 18.4 µM; for `COCC(C)NC(=O)C(NC(C)=O)[C@H]1CC(C(=O)O)C[C@@H]1N=C(N)N` (stereo partly specified) it is 25.1 µM.
As for `CC(=O)NC(C(=O)N1CCSCC1)[C@H]1CC(C(=O)O)C[C@@H]1N=C(N)N` (stereo partly specified), the IC50 on Neuraminidase came out at 29.1 µM.
On Neuraminidase, `CC(=O)NC(C(=O)NC(C)CCc1ccccc1)[C@H]1CC(C(=O)O)C[C@@H]1N=C(N)N` (stereo partly specified) displayed an IC50 of 12.5 µM.
For `CCC(C)NC(=O)C(NC(C)=O)[C@H]1CC(C(=O)O)C[C@@H]1N=C(N)N` (stereo partly specified), half-maximal inhibition against Neuraminidase (IC50) was put at 16.5 µM.
With `CC(=O)NC(C(=O)N1CCCC1)[C@H]1CC(C(=O)O)C[C@@H]1N=C(N)N` (stereo partly specified), the 50% inhibitory concentration (IC50) against Neuraminidase was found to be 24 µM.
On to `CCCC(C)NC(=O)C(NC(C)=O)[C@H]1CC(C(=O)O)C[C@@H]1N=C(N)N` (stereo partly specified), for which, on Neuraminidase, inhibition was half-maximal at 12.2 µM (IC50).
Same read-out and setting: the value for `CCCCC(C)NC(=O)C(NC(C)=O)[C@H]1CC(C(=O)O)C[C@@H]1N=C(N)N` (stereo partly specified) was 37 µM.
The same measure, in the same setting: the value for `CCN(Cc1ccccc1)C(=O)C(NC(C)=O)[C@H]1CC(C(=O)O)C[C@@H]1N=C(N)N` (stereo partly specified) was over 30 µM; that for `CC(=O)NC(C(=O)N(C)CCc1ccccc1)[C@H]1CC(C(=O)O)C[C@@H]1N=C(N)N` (stereo partly specified) was 26.7 µM.
At Neuraminidase, `CCC(CC)NC(=O)C(NC(C)=O)[C@H]1CC(C(=O)O)C[C@@H]1N=C(N)N` (stereo partly specified) gave a half-inhibitory concentration (IC50) of 3 µM.
Turning to `CCC(COC)NC(=O)C(NC(C)=O)[C@H]1CC(C(=O)O)C[C@@H]1N=C(N)N` (stereo partly specified), on Neuraminidase, the half-maximal inhibitory concentration (IC50) is 20 µM.
In turn, `CC(=O)NC(C(=O)NC(C)CC(C)C)[C@H]1CC(C(=O)O)C[C@@H]1N=C(N)N` (stereo partly specified) gave a half-inhibitory concentration (IC50) on Neuraminidase of 11.4 µM.
Consider `CCCN(CC)C(=O)C(NC(C)=O)[C@H]1CC(C(=O)O)C[C@@H]1N=C(N)N` (stereo partly specified), for which the concentration for half-maximal inhibition (IC50) against Neuraminidase stood at 7 µM.
Still for that read-out and setting: the figure for `CC(=O)NC(C(=O)NCCc1ccccc1)[C@H]1CC(C(=O)O)C[C@@H]1N=C(N)N` (stereo partly specified) is 70.5 µM.
For `CC(=O)NC(C(=O)N1CCCCC1)[C@H]1CC(C(=O)O)C[C@@H]1N=C(N)N` (stereo partly specified), at Neuraminidase, inhibition was half-maximal at 6.9 µM (IC50).
On to `CC(=O)NC(C(=O)NC(C)C)[C@H]1CC(C(=O)O)C[C@@H]1N=C(N)N` (stereo partly specified), for which inhibition against Neuraminidase was half-maximal at 4.6 µM (IC50).
On to `CC(=O)NC(C(=O)N(C)C(C)C)[C@H]1CC(C(=O)O)C[C@@H]1N=C(N)N` (stereo partly specified), for which it took 6.8 µM to reach half-maximal inhibition at Neuraminidase (IC50).
Regarding `CC(=O)NC(C(=O)N1CCCC(C)C1)[C@H]1CC(C(=O)O)C[C@@H]1N=C(N)N` (stereo partly specified), the IC50 on Neuraminidase is over 10 µM.
As for `CCCCC(CC)NC(=O)C(NC(C)=O)[C@H]1CC(C(=O)O)C[C@@H]1N=C(N)N` (stereo partly specified), the IC50 at Neuraminidase stood at 16 µM.
Regarding `CCN(CC)C(=O)C(NC(C)=O)[C@H]1C[C@@](O)(C(=O)O)C[C@@H]1N=C(N)N` (stereo partly specified), the IC50 in test [1] came out at 1.6 µM.
Compound `CCCN(C)C(=O)C(NC(C)=O)[C@H]1CC(C(=O)O)C[C@@H]1N=C(N)N` (stereo partly specified) had an IC50 at Neuraminidase of 6.2 µM.
On the same count and under the same terms, the figure for `CCNC(=O)C(NC(C)=O)[C@H]1CC(C(=O)O)C[C@@H]1N=C(N)N` (stereo partly specified) is 3.1 µM.
On to `C=CCN(C)C(=O)C(NC(C)=O)[C@H]1CC(C(=O)O)C[C@@H]1N=C(N)N` (stereo partly specified), for which, at Neuraminidase, the IC50 came to 11.7 µM.
On to `CCCN(CCC)C(=O)C(NC(C)=O)[C@H]1C[C@](O)(C(=O)O)C[C@@H]1N=C(N)N` (mixture of isomers), for which, in test [1], the IC50 is 2300 µM.
As for `CC(=O)NC(C(=O)O)[C@@H]1CCC(=C2SCCCS2)C1` (mixture of isomers; form 1), the Max weight loss in the test with Mus musculus [2] stood at 27.5%; in the test on Mus musculus [3] it was 3.1%; in the test with Mus musculus [4], 8.7%; in the test with Mus musculus [5], 12.7%. Besides, the values for the half-inhibitory concentration (IC50) (in test [1]; against Neuraminidase) were 0.007 µM and 3 µM, respectively.
In the case of `CC(=O)NC(C(=O)O)[C@@H]1CCC(=C2SCCCS2)C1` (mixture of isomers; form 2), the figures for the IC50 (in test [1]; at Neuraminidase) were 0.06 µM and 3 µM, respectively.
As for `CC(=O)NC(C(=O)O)[C@@H]1CCC(=C2SCCCS2)C1` (single isomer, unassigned), the IC50 in test [1] came out at 0.043 µM; at Neuraminidase it was 8.6 µM.
Turning to `CC(=O)NC(C(=O)O)[C@@H]1CCC(=C2SCCCS2)C1` (stereo in doubt), in test [1], the IC50 was 25 µM.
For `CCCN(CCC)C(=O)C(NC(C)=O)[C@H]1C[C@](O)(C(=O)O)C[C@@H]1N=C(N)N` (stereo in doubt), the IC50 in test [1] worked out at 4.9 µM; against Neuraminidase, 33 µM.
